In one experiment the test system is HCT-116. Briefly: Antiproliferative activity against human HCT116 cells. The format is functional, cell-based.
Another experiment has as its target T1, Aurora kinase A (Homo sapiens, UniProt O14965).
T1 sequence (O14965 whole entry): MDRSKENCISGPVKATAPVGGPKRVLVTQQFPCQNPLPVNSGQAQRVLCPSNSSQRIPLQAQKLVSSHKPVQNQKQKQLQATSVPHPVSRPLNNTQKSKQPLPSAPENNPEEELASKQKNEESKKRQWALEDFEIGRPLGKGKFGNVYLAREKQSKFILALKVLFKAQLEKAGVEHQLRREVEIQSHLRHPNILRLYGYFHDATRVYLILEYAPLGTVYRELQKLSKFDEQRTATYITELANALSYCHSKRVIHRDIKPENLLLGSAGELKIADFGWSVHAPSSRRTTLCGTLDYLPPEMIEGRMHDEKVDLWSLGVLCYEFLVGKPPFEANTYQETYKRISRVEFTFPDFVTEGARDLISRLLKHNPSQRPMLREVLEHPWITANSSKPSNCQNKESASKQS
Put plainly: Binding affinity to Aurora A kinase catalytic domain by competitive binding assay.

Experiment [1] has as its target T2, Aurora kinase B (Homo sapiens, UniProt Q96GD4). Put plainly: Inhibition of Aurora B kinase assessed as reduction in histone H3 phosphorylation in human HCT116 cells. Type of experiment: cell-based, HCT-116.
Experiment [2] concerns the target T2, Aurora kinase B. Briefly: Binding affinity to Aurora B kinase catalytic domain by competitive binding assay.
The next experiment deals with T3, Aurora kinase C (Homo sapiens, UniProt Q9UQB9).
T3 sequence (Q9UQB9 whole entry): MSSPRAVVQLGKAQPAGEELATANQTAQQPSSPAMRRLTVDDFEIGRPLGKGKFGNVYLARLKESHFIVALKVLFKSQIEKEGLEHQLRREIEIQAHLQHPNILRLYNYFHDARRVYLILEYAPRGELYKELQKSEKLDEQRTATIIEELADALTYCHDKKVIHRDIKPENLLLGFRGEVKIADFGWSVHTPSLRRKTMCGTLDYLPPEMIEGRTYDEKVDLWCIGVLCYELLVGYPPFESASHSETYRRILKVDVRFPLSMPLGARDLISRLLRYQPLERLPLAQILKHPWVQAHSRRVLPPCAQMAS
Briefly: Binding affinity to Aurora C kinase catalytic domain by competitive binding assay.

Structures are written as SMILES.

T2 sequence (Q96GD4 whole entry, the tested form may be a part): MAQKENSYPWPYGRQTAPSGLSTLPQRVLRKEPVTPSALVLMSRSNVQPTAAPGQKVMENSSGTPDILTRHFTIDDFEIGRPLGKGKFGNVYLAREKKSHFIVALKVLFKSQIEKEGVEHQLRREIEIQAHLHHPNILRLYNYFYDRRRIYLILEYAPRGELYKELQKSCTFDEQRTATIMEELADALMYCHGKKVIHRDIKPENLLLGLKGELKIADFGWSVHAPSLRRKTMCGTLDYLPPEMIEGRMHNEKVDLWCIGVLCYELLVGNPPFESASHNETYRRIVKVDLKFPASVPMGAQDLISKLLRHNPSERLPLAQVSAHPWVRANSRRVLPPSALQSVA

Turning to `Cc1cc(Nc2nc(Sc3ccc(NC(=O)CN4C[C@H](Oc5ccc(F)cc5F)[C@@H](O)C4)cc3)nn3cccc23)n[nH]1`, the IC50 is 5 nM in the experiment on HCT-116 and 58 nM on Aurora kinase B [1]. In addition, the Kd on Aurora kinase A worked out at 13 nM; at Aurora kinase B [2], 17 nM.
Regarding `Cc1cc(Nc2nc(Sc3ccc(NC(=O)CN4C[C@@H](O)[C@@H](Oc5ccc(F)cc5)C4)cc3)nn3cccc23)n[nH]1`, the IC50 in the experiment with HCT-116 came to 9 nM; on Aurora kinase B [1], 84 nM. Besides, the Kd was 7 nM on Aurora kinase A and 8 nM at Aurora kinase B [2].
The like results for `Cc1cc(Nc2nc(Sc3ccc(NC(=O)CN4C[C@H]5C[C@H]5[C@H]4CO)cc3)nn3cccc23)n[nH]1` were, in that order, 203 nM, 179 nM, 17 nM and 15 nM.
Consider `Cc1cc(Nc2nc(Sc3ccc(NC(=O)CN4C[C@@H](F)C[C@H]4CO)cc3)nn3cccc23)n[nH]1`, for which the results for the IC50 in the experiment on HCT-116 and at Aurora kinase B [1] were 25 nM and 28 nM, respectively. In addition, the Kd on Aurora kinase A came to 8 nM; at Aurora kinase B [2] it was 4 nM.
In the case of `Cc1cc(Nc2nc(Sc3ccc(NC(=O)CNC4CC4)cc3)nn3cccc23)n[nH]1`, the IC50 with HCT-116 was 364 nM; at Aurora kinase B [1] it was 288 nM. Moreover, the Kd amounted to 32 nM on Aurora kinase A, 6 nM at Aurora kinase C and 41 nM at Aurora kinase B [2].
As to `Cc1cc(Nc2nc(Sc3ccc(NC(=O)CN4C[C@H](OC5CCCC5)[C@@H](O)C4)cc3)nn3cccc23)n[nH]1`, the results for the IC50 in the experiment with HCT-116 and at Aurora kinase B [1] were 6 nM and 23 nM, respectively. For the same compound, the Kd was 11 nM at Aurora kinase A and 4 nM at Aurora kinase B [2].
For `Cc1cc(Nc2nc(Sc3ccc(NC(=O)CN4C[C@H](Oc5cccc(F)c5)[C@@H](O)C4)cc3)nn3cccc23)n[nH]1` the same measures were 7 nM, 51 nM, 17 nM and 10 nM.
For `Cc1cc(Nc2nc(Sc3ccc(NC(=O)CN4CCC[C@H]4CO)cc3)nn3cccc23)n[nH]1`, the IC50 turned out to be 148 nM in the experiment on HCT-116 and 146 nM on Aurora kinase B [1]. Moreover, the Kd on Aurora kinase A turned out to be 14 nM; at Aurora kinase C it was 1 nM; at Aurora kinase B [2], 4 nM.
Consider `Cc1cc(Nc2nc(Sc3ccc(NC(=O)CN4C[C@H](Oc5cc(F)cc(F)c5)[C@@H](O)C4)cc3)nn3cccc23)n[nH]1`, for which the IC50 in the experiment with HCT-116 was determined as 7 nM; on Aurora kinase B [1], 51 nM. Besides, the Kd on Aurora kinase A is 26 nM; at Aurora kinase B [2], 21 nM.
For `Cc1cc(Nc2nc(Sc3ccc(NC(=O)CN4CC(=NO)[C@@H](OC(C)(C)C)C4)cc3)nn3cccc23)n[nH]1` (mixture of isomers) the same measures were 8 nM, 28 nM, 9 nM and 5 nM.
With `Cc1cc(Nc2nc(Sc3ccc(NC(=O)C4CC4)cc3)nn3cc(NC(=O)CCN4CCCCC4)cc23)n[nH]1`, the IC50 in the experiment on HCT-116 stood at 101 nM; on Aurora kinase B [1], 850 nM. In addition, the Kd on Aurora kinase A is 38 nM; on Aurora kinase C, 10 nM; on Aurora kinase B [2], 37 nM.
For the compound `Cc1cc(Nc2nc(Sc3ccc(NC(=O)CN4C[C@H](O)C[C@H]4CO)cc3)nn3cccc23)n[nH]1`, the IC50 in the experiment with HCT-116 was 596 nM; at Aurora kinase B [1] it was 637 nM. For the same compound, the Kd at Aurora kinase A was 58 nM; at Aurora kinase B [2] it was 15 nM.
For `CCC(C)(C)O[C@H]1CN(CC(=O)Nc2ccc(Sc3nc(Nc4cc(C)[nH]n4)c4cccn4n3)cc2)C[C@@H]1O` the same measures were 9 nM, 28 nM, 8 nM and 4 nM.
For `Cc1cc(Nc2nc(Sc3ccc(NC(=O)CN4C[C@H](OC(C)(C)C)C[C@@H]4CO)cc3)nn3cccc23)n[nH]1` the same measures were 2390 nM, 2490 nM, 301 nM and 69 nM.
The like results for `Cc1cc(Nc2nc(Sc3ccc(NC(=O)CN4C[C@H](SC(C)(C)C)C[C@H]4CO)cc3)nn3cccc23)n[nH]1` were, in that order, 1610 nM, 1790 nM, 111 nM and 39 nM.
`Cc1cc(Nc2nc(Sc3ccc(NC(=O)CN4C[C@H](OC(C)C)[C@@H](O)C4)cc3)nn3cccc23)n[nH]1`: the IC50 stood at 10 nM in the experiment on HCT-116 and 23 nM at Aurora kinase B [1]. For the same compound, the Kd on Aurora kinase A came out at 8 nM; on Aurora kinase B [2], 4 nM.
For `Cc1cc(Nc2nc(Sc3ccc(NC(=O)CN4C[C@H](N)C[C@H]4CO)cc3)nn3cccc23)n[nH]1` the same measures were 4700 nM, 15000 nM, 381 nM and 144 nM.
For `Cc1cc(Nc2nc(Sc3ccc(NC(=O)CN4CC(F)(F)C[C@H]4CO)cc3)nn3cccc23)n[nH]1`, the IC50 stood at 25 nM with HCT-116 and 29 nM at Aurora kinase B [1]. In addition, the Kd on Aurora kinase A stood at 8 nM; at Aurora kinase C, 2 nM; at Aurora kinase B [2] it was 5 nM.
With `Cc1cc(Nc2nc(Sc3ccc(NC(=O)CN4C[C@H](O)[C@@H](F)C4)cc3)nn3cccc23)n[nH]1`, the results for the IC50 with HCT-116 and at Aurora kinase B [1] were 33 nM and 47 nM, respectively. Also, the Kd at Aurora kinase A was 5 nM; at Aurora kinase B [2], 1 nM.
Turning to `COCCO[C@H]1CN(CC(=O)Nc2ccc(Sc3nc(Nc4cc(C)[nH]n4)c4cccn4n3)cc2)C[C@@H]1O`, the IC50 is 25 nM in the experiment on HCT-116 and 49 nM on Aurora kinase B [1]. At Aurora kinase B [2], this compound returned a Kd of 2 nM.
Turning to `Cc1cc(Nc2nc(Sc3ccc(NC(=O)CN(C)C)cc3)nn3cccc23)n[nH]1`, the IC50 was found to be 370 nM in the experiment with HCT-116 and 293 nM at Aurora kinase B [1]. Also, the Kd stood at 31 nM on Aurora kinase A, 5 nM on Aurora kinase C and 8 nM at Aurora kinase B [2].
For `Cc1cc(Nc2nc(Sc3ccc(NC(=O)CN4CCOCC4)cc3)nn3cccc23)n[nH]1` the same measures were 1840 nM, 1830 nM, 85 nM, 17 nM and 41 nM.
On to `Cc1cc(Nc2nc(Sc3ccc(NC(=O)CN4C[C@H](OC(C)(C)C(F)(F)F)[C@@H](O)C4)cc3)nn3cccc23)n[nH]1`, for which the IC50 with HCT-116 was 9 nM; at Aurora kinase B [1], 27 nM. Also, the Kd at Aurora kinase A came to 6 nM; at Aurora kinase B [2], 4 nM.
For `Cc1cc(Nc2nc(Sc3ccc(NC(=O)CN4C[C@H](Oc5ccccc5F)[C@@H](O)C4)cc3)nn3cccc23)n[nH]1` the same measures were 4 nM, 28 nM, 10 nM and 9 nM.
In the experiment on HCT-116, `Cc1cc(Nc2cc(N3CCN(C)CC3)nc(Sc3ccc(NC(=O)C4CC4)cc3)n2)n[nH]1` [TOZASERTIB] had an IC50 of 28 nM.
Regarding `Cc1cc(Nc2nc(Sc3ccc(NC(=O)CN4C[C@H](Oc5ccc(F)cc5)C[C@H]4CO)cc3)nn3cccc23)n[nH]1`, the IC50 came out at 24 nM in the experiment on HCT-116 and 78 nM on Aurora kinase B [1]. In addition, the Kd was determined as 53 nM at Aurora kinase A and 21 nM at Aurora kinase B [2].
For `Cc1cc(Nc2nc(Sc3ccc(NC(=O)CN4C[C@H](OCC5CC5)[C@@H](O)C4)cc3)nn3cccc23)n[nH]1`, the IC50 in the experiment on HCT-116 is 10 nM; at Aurora kinase B [1], 23 nM. In addition, the Kd at Aurora kinase A stood at 7 nM; on Aurora kinase B [2] it was 2 nM.
For `Cc1cc(Nc2nc(Sc3ccc(NC(=O)CN4C[C@H](F)C[C@H]4CO)cc3)nn3cccc23)n[nH]1` the same measures were 104 nM, 91 nM, 15 nM and 9 nM.

For orientation: IC50 means the concentration at which inhibition is half-maximal. The Kd is a measure of binding affinity in units of concentration.

Values taken from ChEMBL document CHEMBL1821662 (Bioorg Med Chem Lett, 2011).
